Measurements published in ChEMBL document CHEMBL5653615 (J Biol Chem, 2013).

Experiments:
[1] = target: ALK tyrosine kinase receptor (Homo sapiens) (UniProt Q9UM73); assay: Inhibition of human ALK at 18.6 nM by HotSpot assay relative to control
[2] = target: Casein kinase I isoform gamma-2 (Homo sapiens) (UniProt P78368); assay: Inhibition of human CK1g2 at 18.6 nM by HotSpot assay relative to control
[3] = target: T1, Megakaryocyte-associated tyrosine-protein kinase (Homo sapiens) (UniProt P42679); assay: Inhibition of human CTK at 18.6 nM by HotSpot assay relative to control
T1 sequence (whole entry): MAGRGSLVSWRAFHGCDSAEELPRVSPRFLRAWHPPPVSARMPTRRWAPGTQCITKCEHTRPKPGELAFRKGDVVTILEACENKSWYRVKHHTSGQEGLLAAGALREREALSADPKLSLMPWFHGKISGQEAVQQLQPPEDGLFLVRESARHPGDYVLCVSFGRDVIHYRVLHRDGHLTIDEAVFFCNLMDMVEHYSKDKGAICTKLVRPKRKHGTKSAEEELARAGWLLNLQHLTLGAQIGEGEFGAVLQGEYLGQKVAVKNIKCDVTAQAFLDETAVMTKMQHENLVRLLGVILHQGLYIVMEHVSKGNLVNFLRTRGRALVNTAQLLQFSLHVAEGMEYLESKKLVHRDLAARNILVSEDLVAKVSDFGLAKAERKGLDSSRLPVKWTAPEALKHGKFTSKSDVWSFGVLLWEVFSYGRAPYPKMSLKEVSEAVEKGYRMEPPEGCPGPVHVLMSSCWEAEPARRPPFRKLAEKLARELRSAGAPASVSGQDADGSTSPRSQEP

[4] = target: NT-3 growth factor receptor (Homo sapiens) (UniProt Q16288); assay: Inhibition of human TRKC at 18.6 nM by HotSpot assay relative to control
[5] = target: Tyrosine-protein kinase CSK (Homo sapiens) (UniProt P41240); assay: Inhibition of human CSK at 18.6 nM by HotSpot assay relative to control
[6] = target: Interleukin-1 receptor-associated kinase 1 (Homo sapiens) (UniProt P51617); assay: Inhibition of human IRAK1 at 1.82 nM by HotSpot assay relative to control
[7] = target: Protein-tyrosine kinase 6 (Homo sapiens) (UniProt Q13882); assay: Inhibition of human BRK at 1.82 nM by HotSpot assay relative to control
[8] = target: Glycogen synthase kinase-3 beta (Homo sapiens) (UniProt P49841); assay: Inhibition of human GSK3b at 1.82 nM by HotSpot assay relative to control
[9] = target: TGF-beta receptor type-2 (Homo sapiens) (UniProt P37173); assay: Inhibition of human TGFBR2 at 1.82 nM by HotSpot assay relative to control
[10] = target: T2, Inhibitor of nuclear factor kappa-B kinase subunit alpha (Homo sapiens) (UniProt O15111); conditions: dose 1.82 nM
T2 sequence (whole entry): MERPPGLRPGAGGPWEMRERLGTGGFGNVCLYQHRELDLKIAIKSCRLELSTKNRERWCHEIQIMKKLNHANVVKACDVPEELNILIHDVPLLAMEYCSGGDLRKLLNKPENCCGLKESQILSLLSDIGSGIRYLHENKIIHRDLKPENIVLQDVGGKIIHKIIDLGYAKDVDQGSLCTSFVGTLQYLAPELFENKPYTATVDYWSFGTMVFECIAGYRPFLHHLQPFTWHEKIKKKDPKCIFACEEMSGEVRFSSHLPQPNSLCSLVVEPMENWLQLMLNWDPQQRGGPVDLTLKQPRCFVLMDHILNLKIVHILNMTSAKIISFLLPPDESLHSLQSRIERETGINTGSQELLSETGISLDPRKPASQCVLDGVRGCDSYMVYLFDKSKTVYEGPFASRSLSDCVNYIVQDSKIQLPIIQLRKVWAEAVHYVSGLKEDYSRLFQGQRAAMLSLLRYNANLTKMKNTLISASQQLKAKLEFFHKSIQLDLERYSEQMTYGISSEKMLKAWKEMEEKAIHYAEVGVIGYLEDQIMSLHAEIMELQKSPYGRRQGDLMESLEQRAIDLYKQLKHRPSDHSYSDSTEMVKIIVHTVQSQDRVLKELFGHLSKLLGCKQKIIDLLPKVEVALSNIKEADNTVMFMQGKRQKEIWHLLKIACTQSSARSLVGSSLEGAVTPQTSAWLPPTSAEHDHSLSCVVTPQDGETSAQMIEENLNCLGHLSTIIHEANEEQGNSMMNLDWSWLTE
Description: Inhibition of human IKKa at 1.82 nM by HotSpot assay relative to control

[11] = target: Serine/threonine-protein kinase PAK 3 (Homo sapiens) (UniProt O75914); assay: Inhibition of human PAK3 at 1.82 nM by HotSpot assay relative to control
[12] = target: T3, Serine/threonine-protein kinase TAO1 (Homo sapiens) (UniProt Q7L7X3); assay: Inhibition of human TAOK1 at 1.82 nM by HotSpot assay relative to control
T3 sequence (whole entry): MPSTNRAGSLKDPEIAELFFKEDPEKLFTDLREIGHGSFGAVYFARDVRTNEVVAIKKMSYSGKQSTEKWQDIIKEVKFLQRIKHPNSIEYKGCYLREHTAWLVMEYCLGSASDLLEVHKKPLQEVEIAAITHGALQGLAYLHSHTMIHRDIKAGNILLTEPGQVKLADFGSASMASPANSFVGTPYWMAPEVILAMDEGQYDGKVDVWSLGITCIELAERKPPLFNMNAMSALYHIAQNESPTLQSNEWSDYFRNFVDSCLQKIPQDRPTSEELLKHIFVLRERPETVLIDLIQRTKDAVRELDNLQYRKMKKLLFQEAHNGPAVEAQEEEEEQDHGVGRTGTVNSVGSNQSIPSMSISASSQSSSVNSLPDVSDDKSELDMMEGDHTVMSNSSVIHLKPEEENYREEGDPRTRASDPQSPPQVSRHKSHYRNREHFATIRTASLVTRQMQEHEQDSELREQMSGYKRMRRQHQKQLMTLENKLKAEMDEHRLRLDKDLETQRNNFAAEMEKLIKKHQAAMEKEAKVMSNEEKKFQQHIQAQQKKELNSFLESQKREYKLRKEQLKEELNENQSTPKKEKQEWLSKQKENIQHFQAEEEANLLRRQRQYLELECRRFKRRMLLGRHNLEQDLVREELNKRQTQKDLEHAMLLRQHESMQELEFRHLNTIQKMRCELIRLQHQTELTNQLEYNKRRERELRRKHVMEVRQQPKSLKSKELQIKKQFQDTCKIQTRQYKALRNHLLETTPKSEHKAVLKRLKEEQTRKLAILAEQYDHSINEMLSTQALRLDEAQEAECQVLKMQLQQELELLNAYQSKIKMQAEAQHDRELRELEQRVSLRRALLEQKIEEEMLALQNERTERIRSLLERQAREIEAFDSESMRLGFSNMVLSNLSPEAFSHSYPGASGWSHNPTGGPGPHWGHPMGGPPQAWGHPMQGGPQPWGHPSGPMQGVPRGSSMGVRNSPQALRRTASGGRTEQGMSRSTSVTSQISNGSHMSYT

Sequence of Interleukin-1 receptor-associated kinase 1 (Homo sapiens) (P51617 whole entry, looked up): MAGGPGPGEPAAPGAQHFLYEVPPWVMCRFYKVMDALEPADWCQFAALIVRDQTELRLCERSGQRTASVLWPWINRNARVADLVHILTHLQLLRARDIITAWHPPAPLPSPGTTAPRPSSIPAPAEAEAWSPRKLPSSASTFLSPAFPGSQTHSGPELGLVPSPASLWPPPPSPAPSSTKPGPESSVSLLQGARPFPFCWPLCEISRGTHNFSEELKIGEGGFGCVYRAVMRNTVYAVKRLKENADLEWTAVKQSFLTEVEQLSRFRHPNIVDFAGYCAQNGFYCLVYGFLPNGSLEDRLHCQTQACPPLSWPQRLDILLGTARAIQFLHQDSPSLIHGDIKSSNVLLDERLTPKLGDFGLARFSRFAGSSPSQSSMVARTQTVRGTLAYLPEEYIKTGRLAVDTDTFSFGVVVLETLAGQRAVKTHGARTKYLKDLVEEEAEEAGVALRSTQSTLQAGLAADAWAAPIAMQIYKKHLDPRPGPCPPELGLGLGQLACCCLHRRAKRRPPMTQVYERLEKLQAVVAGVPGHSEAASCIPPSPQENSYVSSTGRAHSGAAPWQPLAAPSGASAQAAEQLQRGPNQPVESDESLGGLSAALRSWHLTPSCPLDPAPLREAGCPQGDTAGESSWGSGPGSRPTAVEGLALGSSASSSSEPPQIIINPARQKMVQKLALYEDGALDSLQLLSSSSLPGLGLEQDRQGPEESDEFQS
Sequence of ALK tyrosine kinase receptor (Homo sapiens) (Q9UM73 19-1620 limits assumed): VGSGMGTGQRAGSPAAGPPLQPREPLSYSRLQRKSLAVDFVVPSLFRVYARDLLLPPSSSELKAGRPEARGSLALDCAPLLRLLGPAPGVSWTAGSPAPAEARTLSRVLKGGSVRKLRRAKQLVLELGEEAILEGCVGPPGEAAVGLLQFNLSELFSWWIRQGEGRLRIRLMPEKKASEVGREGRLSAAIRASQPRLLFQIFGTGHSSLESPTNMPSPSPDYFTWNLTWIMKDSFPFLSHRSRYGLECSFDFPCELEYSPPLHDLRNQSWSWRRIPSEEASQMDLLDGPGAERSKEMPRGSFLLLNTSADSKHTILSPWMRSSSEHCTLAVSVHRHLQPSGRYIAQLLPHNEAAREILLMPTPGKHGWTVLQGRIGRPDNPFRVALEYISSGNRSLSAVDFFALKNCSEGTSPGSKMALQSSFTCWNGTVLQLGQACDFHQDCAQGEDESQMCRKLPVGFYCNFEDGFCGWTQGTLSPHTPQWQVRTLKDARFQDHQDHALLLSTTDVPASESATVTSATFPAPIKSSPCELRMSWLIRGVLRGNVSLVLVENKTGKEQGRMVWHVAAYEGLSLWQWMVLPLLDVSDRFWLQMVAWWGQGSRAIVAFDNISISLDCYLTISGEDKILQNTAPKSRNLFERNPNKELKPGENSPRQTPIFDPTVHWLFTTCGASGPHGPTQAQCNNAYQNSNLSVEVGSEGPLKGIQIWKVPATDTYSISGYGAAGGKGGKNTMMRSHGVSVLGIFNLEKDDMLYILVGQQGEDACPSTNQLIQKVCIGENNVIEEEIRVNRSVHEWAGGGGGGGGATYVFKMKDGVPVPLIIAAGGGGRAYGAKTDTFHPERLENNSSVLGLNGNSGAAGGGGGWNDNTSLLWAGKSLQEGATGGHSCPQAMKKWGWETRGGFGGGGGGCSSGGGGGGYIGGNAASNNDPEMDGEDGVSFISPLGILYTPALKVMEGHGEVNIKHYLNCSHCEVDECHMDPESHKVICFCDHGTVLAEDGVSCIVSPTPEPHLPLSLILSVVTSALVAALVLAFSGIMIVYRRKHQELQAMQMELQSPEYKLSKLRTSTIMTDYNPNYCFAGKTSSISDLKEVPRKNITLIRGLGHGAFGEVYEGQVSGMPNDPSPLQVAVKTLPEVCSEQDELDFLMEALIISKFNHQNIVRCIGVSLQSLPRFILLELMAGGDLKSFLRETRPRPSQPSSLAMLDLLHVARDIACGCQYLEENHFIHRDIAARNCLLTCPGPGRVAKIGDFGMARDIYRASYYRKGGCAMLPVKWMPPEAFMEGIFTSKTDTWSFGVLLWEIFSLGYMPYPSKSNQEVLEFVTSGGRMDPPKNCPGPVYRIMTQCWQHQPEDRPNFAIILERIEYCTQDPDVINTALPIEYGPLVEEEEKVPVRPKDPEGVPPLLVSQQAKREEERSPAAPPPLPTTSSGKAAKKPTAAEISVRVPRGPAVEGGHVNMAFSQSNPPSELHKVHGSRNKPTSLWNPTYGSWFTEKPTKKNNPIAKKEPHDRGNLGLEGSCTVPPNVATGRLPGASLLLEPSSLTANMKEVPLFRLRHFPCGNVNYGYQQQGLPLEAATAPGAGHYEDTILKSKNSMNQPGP
Sequence of Glycogen synthase kinase-3 beta (Homo sapiens) (P49841 whole entry, looked up): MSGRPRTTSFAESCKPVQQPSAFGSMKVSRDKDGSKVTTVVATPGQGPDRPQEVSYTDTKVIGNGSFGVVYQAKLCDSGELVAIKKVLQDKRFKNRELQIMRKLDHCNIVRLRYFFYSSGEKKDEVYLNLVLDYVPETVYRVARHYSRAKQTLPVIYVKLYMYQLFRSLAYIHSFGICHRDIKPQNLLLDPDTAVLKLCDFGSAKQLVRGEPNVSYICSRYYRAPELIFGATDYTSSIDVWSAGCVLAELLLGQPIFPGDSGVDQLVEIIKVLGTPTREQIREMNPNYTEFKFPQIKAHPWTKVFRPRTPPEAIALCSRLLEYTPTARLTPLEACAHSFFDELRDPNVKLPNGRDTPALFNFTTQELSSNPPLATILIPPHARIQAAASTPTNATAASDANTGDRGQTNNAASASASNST
Sequence of Tyrosine-protein kinase CSK (Homo sapiens) (P41240 2-450 limits assumed): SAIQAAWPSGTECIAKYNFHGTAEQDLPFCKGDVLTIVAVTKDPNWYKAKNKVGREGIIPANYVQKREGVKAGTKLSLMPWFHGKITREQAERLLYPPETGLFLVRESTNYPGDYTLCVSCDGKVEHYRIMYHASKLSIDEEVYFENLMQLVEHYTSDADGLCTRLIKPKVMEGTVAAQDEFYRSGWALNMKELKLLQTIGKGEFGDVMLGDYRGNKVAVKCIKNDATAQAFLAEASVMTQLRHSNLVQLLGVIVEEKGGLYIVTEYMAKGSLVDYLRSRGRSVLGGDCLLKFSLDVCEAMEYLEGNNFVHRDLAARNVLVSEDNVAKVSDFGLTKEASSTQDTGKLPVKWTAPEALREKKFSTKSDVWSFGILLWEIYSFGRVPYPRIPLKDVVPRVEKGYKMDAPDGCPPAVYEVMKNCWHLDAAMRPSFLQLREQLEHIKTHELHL
Sequence of NT-3 growth factor receptor (Homo sapiens) (Q16288 32-839 limits assumed): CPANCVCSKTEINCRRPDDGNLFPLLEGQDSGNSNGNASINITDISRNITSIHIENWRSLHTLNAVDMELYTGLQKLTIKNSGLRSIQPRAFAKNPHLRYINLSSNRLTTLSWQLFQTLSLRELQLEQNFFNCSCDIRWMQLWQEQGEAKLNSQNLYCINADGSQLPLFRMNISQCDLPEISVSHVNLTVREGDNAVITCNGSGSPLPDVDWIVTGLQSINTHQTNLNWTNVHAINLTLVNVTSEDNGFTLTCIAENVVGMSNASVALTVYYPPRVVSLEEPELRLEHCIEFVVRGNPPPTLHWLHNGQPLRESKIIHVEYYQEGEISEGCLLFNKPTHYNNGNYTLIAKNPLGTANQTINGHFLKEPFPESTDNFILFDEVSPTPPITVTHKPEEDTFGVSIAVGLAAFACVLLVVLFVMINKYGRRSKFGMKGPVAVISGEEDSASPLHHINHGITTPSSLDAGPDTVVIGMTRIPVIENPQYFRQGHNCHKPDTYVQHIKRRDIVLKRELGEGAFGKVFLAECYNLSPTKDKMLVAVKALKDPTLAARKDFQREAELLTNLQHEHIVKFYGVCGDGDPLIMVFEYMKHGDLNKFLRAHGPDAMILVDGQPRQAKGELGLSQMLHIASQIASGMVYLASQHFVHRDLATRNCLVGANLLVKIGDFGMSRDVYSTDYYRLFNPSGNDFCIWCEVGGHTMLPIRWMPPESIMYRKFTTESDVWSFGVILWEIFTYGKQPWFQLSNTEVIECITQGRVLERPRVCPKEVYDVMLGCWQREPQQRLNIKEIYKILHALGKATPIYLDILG
Sequence of Serine/threonine-protein kinase PAK 3 (Homo sapiens) (O75914 whole entry, looked up): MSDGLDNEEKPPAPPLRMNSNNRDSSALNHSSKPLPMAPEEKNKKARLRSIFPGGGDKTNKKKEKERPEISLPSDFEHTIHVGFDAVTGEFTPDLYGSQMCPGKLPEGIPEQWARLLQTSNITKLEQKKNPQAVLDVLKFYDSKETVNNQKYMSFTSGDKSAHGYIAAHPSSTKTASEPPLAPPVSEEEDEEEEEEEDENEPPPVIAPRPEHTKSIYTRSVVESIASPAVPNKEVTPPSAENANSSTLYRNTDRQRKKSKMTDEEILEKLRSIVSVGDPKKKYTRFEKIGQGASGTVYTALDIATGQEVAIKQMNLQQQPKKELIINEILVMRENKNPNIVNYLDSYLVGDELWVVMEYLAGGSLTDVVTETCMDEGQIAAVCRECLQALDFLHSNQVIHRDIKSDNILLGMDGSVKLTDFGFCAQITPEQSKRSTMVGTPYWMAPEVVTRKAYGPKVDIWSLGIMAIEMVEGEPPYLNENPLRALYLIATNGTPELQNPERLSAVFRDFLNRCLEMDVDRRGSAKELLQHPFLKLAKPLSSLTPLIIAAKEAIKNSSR
Sequence of Casein kinase I isoform gamma-2 (Homo sapiens) (P78368 whole entry, looked up, canonical isoform): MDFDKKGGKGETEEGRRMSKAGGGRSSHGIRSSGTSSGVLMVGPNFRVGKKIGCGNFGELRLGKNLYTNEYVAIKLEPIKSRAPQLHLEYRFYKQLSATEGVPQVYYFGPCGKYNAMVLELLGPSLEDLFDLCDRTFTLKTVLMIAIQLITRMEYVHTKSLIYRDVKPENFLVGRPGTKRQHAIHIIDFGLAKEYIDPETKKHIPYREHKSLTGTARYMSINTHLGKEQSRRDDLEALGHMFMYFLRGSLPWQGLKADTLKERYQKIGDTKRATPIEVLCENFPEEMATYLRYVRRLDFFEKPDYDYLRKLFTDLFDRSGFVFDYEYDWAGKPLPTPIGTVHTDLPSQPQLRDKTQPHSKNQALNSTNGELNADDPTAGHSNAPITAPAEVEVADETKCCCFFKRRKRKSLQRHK

inhibition [1] [%]	inhibition [2] [%]	inhibition [3] [%]	inhibition [4] [%]	inhibition [5] [%]	inhibition [6] [%]	inhibition [7] [%]	inhibition [8] [%]	inhibition [9] [%]	inhibition [10] [%]	inhibition [11] [%]	inhibition [12] [%]	SMILES
-6.1	-6.22	-2.07	0.03	3.89	–	–	–	–	–	–	–	C[C@]1(O)C[C@@H](c2nc(-c3ccc4ccc(-c5ccccc5)nc4c3)c3c(N)nccn32)C1
–	–	–	–	–	-7.77	0.2	34.6	5.94	3.74	-2.89	4.21	C[C@@]1(C(=O)Nc2ccc(F)nc2)CCCN1c1nc(Nc2cc(C3CC3)n[nH]2)c2cccn2n1
